These results are taken from patent US6610483B1, “Methods for identifying cellular responses attributable to signaling molecule inhibition and inhibitors thereof” (priority 1999, dated 2003).

One assay relates to mutant CDC28 F88G cells. In words: DNA chip array of gene transcripts in mutant CDC28 F88G yeast cells exposed to the mutant inhibitor. It is filed as cell-based. The settings on record: 500 nM. The method, then: Yeast cells expressing a functionally silent, mutant form of the wild-type protein kinase CDC28, termed CDC28 F88G, were prepared by the methods of standard yeast genetics as described in “Guide to Yeast Genetics and Molecular Biology” (Methods in Enzymology, Vol.194) by Christine Guthrie, Gerald R. Fink (Editor) Vol 194 (February 1991) Academic Press. A selective inhibitor of the mutant kinase, with little effect on the wild-type kinase, was prepared and identified using the methods described in Application Serial No. 60/115,340. Using DNA chip array technology, the levels of 6100 gene transcripts were quantitated in mRNA isolated from yeast cells expressing either wild type or F88G (mutant) CDC28 protein kinase either untreated or treated for treated for 30 minutes or 120 minutes with 500 nanomolar (nM) 4-amino-1-(tert-butyl)-3-(1′-naphthylmethyl)pyrazolo[3,4-d]pyrimidine dissolved in DMSO (500) or simply DMSO (DMSO). A change is defined as 2 fold increase or decrease in a gene transcript that is present or absent only in a particular sample. Methods for measuring transcripts were those described in Wodicka L, Dong H, Mittmann M, Ho M H, Lockhart D J, Genome-wide expression monitoring in Saccharomyces cerevisiae, Nat. Biotechnol. (1997) 15:1359-67. The results and comparisons among the gene transcripts are shown in FIGS. 1-4, with the identities of the particular gene transcripts listed in FIG. 5. Non-specific drug effects are the result of the exposure of the inhibitor to wild-type cells. The mutation effects are indicated by the alterations between the expression pattern between the mutant cells and the wild-type cells, both in the absence of inhibitor. The results of specific inhibition are shown by the differences between the mutant cells before and after exposure to the inhibitor, including increases and decreases. Effects of the inhibitor were evaluated at 30 and 120 minutes. These two time points were chosen based on the known time interval for yeast cell cycle progression which is about 90 minutes. Thus one time point shorter than the full cell cycle progression time (30 minutes) and one time point longer than […] (120 minutes) were chosen. The comparisons of results are shown in FIGS. 1-4, and the details of the particular transcripts altered in FIG. 5.

The test system of assay [1] is wild-type yeast cells with CDC28. In words: DNA chip array of gene transcripts in wild-type yeast cells exposed to the mutant inhibitor. It is filed as cell-based. The settings on record: 500 nM, change of 2 fold or more. The method, then:
Yeast cells expressing a functionally silent, mutant form of the wild-type protein kinase CDC28, termed CDC28 F88G, were prepared by the methods of standard yeast genetics as described in “Guide to Yeast Genetics and Molecular Biology” (Methods in Enzymology, Vol.194) by Christine Guthrie, Gerald R. Fink (Editor) Vol 194 (February 1991) Academic Press. A selective inhibitor of the mutant kinase, with little effect on the wild-type kinase, was prepared and identified using the methods described in Application Serial No. 60/115,340. Using DNA chip array technology, the levels of 6100 gene transcripts were quantitated in mRNA isolated from yeast cells expressing either wild type or F88G (mutant) CDC28 protein kinase either untreated or treated for treated for 30 minutes or 120 minutes with 500 nanomolar (nM) 4-amino-1-(tert-butyl)-3-(1′-naphthylmethyl)pyrazolo[3,4-d]pyrimidine dissolved in DMSO (500) or simply DMSO (DMSO). A change is defined as 2 fold increase or decrease in a gene transcript that is present or absent only in a particular sample. Methods for measuring transcripts were those described in Wodicka L, Dong H, Mittmann M, Ho M H, Lockhart D J, Genome-wide expression monitoring in Saccharomyces cerevisiae, Nat. Biotechnol. (1997) 15:1359-67. […] Effects of the inhibitor were evaluated at 30 and 120 minutes. […]

The subject of the next assay is PDGFR. The conditions noted are these: cited from earlier work.

As for `CC(C)(C)n1nc(Cc2cccc3ccccc23)c2c(N)ncnc21` [4-amino-1-(tert-butyl)-3-(1′-naphthylmethyl)pyrazolo[3,4-d]pyrimidine], in the assay on mutant CDC28 F88G cells (30 minute exposure), the genes altered worked out at 85 genes, the “genes decreased more than two-fold” value was determined as 74 genes and the “genes increased more than two-fold” value turned out to be 11 genes. In the assay with mutant CDC28 F88G cells (120 minute exposure), the genes altered stood at 186 genes, the genes decreased is reported as 100 genes and the genes increased turned out to be 86 genes. The “genes altered (non-specific drug effects)” value in assay [1] (30 minute exposure) was 7 genes. For the same molecule, in assay [1] (120 minute exposure), the “genes altered (non-specific drug effects)” value is 3 genes.

As for `Cc1ccc(NC(=O)c2ccc(CN3CCN(C)CC3)cc2)cc1Nc1nccc(-c2cccnc2)n1` [CGP 57148], the IC50 with PDGFR was […].
